Measured values: ChEMBL document CHEMBL5465560, “Selectivity Literature for EUbOPEN Chemogenomic Library” (2024)
Values belong to the compound of their own block, whether it stands above or below them.

Legend:
[1] = biological target: T1, Ephrin type-B receptor 3 (Homo sapiens) (UniProt P54753); conditions: at 10 µM
T1 sequence (whole entry): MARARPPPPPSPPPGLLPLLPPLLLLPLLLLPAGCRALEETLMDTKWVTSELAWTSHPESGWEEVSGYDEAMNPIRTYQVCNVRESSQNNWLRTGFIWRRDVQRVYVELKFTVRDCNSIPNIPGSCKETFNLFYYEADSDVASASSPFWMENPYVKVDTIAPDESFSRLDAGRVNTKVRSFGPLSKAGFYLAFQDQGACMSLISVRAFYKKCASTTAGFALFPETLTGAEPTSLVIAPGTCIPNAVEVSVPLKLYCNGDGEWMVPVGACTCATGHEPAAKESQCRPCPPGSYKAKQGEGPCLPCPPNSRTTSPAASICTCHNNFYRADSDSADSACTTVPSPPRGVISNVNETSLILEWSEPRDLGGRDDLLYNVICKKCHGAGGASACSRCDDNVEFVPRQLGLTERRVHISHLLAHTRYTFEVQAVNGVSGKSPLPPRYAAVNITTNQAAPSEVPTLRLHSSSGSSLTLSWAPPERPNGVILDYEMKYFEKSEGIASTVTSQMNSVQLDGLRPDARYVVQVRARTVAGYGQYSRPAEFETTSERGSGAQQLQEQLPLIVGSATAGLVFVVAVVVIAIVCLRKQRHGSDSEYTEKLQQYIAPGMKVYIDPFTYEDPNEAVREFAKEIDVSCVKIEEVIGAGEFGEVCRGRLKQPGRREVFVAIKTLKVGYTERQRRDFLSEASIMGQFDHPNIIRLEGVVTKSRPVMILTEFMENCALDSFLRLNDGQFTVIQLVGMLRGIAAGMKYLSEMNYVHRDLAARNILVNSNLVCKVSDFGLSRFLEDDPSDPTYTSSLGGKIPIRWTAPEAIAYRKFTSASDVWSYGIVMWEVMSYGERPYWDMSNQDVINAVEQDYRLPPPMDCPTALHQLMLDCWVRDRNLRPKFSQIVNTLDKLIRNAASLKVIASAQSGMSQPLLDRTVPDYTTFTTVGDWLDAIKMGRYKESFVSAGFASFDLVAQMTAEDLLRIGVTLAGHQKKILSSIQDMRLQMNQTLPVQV

[2] = biological target: T2, Calcium/calmodulin-dependent protein kinase type IV (Homo sapiens) (UniProt Q16566); conditions: at 10 µM
T2 sequence (whole entry): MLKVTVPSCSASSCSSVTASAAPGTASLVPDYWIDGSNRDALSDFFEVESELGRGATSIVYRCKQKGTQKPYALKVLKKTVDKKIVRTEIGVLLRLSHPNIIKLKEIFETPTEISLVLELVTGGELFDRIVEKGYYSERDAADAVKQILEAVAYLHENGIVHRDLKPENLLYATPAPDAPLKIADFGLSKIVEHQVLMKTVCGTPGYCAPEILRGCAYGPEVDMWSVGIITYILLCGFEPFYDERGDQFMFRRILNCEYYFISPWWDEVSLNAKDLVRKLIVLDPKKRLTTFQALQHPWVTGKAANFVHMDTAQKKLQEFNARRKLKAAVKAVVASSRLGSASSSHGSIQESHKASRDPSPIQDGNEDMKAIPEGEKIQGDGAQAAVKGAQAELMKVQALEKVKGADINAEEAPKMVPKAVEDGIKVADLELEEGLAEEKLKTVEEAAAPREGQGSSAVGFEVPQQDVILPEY

[3] = biological target: Cyclin-dependent kinase 3 (Homo sapiens) (UniProt Q00526); assay: Selectivity interaction (KinomeScan (DiscoverX)) EUB0001079a CDK3; conditions: at 1 µM
Sequence of Cyclin-dependent kinase 3 (Homo sapiens) (Q00526 whole entry, looked up): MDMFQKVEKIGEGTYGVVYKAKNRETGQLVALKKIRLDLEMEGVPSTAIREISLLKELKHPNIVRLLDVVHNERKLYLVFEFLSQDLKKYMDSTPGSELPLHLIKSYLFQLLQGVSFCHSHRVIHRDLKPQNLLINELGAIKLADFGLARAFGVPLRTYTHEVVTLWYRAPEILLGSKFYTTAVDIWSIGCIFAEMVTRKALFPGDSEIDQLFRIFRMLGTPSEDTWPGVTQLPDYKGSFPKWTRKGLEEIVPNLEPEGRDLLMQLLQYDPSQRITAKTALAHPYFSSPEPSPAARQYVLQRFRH

[4] = biological target: MAP kinase-activated protein kinase 2 (Homo sapiens, UniProt P49137); assay: Selectivity interaction (SelectScreen profiling (Invitrogen)) EUB0000607a MAPKAPK2; conditions: at 2 µM
Sequence of MAP kinase-activated protein kinase 2 (P49137 whole entry, looked up): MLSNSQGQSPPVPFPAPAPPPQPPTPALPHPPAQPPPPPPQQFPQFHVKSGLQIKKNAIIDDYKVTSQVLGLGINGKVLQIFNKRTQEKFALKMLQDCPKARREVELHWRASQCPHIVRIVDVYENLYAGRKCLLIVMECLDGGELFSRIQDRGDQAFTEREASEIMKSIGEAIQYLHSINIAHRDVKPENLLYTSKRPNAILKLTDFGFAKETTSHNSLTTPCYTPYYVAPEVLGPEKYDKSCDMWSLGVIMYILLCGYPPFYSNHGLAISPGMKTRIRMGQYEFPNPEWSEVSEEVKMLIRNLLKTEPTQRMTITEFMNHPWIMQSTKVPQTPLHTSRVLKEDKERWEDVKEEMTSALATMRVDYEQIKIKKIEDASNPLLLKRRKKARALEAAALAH

[5] = biological target: Epidermal growth factor receptor (Homo sapiens, UniProt P00533); assay: (§1) Selectivity interaction (SelectScreen profiling (Invitrogen)) EUB0000607a EGFR; conditions: at 2 µM
[6] = test system: Epidermal growth factor receptor (Homo sapiens), P00533 [T790M]; assay: as §1; conditions: at 2 µM
[7] = test system: Epidermal growth factor receptor (Homo sapiens), P00533 [L861Q]; assay: as §1; conditions: at 2 µM
[8] = test system: Epidermal growth factor receptor (Homo sapiens), P00533 [L858R]; assay: as §1; conditions: at 2 µM
Sequence of Epidermal growth factor receptor (Homo sapiens), P00533 [L858R] (P00533 whole entry L858R): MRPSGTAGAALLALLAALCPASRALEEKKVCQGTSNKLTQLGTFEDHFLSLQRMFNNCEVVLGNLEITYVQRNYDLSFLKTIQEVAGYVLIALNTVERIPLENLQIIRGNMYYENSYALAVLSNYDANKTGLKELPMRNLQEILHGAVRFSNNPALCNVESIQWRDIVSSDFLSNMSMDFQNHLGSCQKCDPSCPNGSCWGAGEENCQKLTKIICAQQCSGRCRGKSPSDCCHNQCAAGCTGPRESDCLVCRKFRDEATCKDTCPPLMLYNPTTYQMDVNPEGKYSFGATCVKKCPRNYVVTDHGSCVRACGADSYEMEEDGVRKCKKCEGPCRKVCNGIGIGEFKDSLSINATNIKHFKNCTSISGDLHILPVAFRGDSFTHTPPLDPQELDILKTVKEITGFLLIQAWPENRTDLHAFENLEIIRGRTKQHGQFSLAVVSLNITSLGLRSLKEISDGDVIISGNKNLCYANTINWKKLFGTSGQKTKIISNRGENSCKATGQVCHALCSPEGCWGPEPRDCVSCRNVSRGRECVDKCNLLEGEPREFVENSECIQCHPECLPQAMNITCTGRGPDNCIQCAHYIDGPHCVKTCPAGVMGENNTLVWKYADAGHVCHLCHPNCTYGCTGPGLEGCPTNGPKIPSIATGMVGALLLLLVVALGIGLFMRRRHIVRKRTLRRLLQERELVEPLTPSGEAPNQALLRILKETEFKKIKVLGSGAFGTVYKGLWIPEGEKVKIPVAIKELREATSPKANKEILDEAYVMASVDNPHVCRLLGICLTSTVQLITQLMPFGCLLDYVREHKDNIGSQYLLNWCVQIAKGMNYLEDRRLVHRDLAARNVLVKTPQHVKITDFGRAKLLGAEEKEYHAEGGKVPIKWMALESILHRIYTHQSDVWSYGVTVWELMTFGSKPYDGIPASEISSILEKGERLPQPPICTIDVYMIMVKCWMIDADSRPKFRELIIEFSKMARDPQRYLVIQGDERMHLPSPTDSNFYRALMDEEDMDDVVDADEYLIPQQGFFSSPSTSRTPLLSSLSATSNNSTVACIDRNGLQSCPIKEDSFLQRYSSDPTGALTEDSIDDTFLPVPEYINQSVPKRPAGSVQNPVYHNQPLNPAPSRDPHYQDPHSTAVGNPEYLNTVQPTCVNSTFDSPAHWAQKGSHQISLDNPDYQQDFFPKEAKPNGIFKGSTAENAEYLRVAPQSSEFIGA

[9] = biological target: T3, Homeodomain-interacting protein kinase 4 (Homo sapiens) (UniProt Q8NE63); assay: Selectivity interaction (KinomeScan (DiscoverX)) EUB0001619a HIPK4; conditions: at 1 µM
T3 sequence (whole entry): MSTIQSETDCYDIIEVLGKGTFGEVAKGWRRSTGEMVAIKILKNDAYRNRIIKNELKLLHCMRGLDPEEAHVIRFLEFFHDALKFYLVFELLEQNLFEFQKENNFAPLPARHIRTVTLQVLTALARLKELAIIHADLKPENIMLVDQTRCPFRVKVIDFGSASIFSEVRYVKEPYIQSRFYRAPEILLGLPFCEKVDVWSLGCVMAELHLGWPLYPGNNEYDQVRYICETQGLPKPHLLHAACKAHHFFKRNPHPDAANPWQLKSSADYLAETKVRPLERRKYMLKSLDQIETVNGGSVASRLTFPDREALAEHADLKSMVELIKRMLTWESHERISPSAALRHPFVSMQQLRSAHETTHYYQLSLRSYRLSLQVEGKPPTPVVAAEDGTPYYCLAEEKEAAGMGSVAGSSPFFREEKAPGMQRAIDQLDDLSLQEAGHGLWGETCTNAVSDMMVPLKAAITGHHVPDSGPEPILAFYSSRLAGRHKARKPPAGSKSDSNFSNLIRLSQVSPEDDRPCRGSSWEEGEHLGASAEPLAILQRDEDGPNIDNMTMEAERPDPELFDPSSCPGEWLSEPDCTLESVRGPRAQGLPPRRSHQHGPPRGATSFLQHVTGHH

[10] = biological target: Tyrosine-protein kinase FRK (Homo sapiens) (UniProt P42685); assay: Selectivity interaction (Kinase panel (Invitrogen)) EUB0000639a FRK; conditions: at 200 nM
[11] = biological target: Leucine-rich repeat serine/threonine-protein kinase 2 (Homo sapiens, UniProt Q5S007); assay: Selectivity interaction (Kinase panel (Invitrogen)) EUB0000639a LRRK2; conditions: at 200 nM
Sequence of Leucine-rich repeat serine/threonine-protein kinase 2 (Q5S007 whole entry): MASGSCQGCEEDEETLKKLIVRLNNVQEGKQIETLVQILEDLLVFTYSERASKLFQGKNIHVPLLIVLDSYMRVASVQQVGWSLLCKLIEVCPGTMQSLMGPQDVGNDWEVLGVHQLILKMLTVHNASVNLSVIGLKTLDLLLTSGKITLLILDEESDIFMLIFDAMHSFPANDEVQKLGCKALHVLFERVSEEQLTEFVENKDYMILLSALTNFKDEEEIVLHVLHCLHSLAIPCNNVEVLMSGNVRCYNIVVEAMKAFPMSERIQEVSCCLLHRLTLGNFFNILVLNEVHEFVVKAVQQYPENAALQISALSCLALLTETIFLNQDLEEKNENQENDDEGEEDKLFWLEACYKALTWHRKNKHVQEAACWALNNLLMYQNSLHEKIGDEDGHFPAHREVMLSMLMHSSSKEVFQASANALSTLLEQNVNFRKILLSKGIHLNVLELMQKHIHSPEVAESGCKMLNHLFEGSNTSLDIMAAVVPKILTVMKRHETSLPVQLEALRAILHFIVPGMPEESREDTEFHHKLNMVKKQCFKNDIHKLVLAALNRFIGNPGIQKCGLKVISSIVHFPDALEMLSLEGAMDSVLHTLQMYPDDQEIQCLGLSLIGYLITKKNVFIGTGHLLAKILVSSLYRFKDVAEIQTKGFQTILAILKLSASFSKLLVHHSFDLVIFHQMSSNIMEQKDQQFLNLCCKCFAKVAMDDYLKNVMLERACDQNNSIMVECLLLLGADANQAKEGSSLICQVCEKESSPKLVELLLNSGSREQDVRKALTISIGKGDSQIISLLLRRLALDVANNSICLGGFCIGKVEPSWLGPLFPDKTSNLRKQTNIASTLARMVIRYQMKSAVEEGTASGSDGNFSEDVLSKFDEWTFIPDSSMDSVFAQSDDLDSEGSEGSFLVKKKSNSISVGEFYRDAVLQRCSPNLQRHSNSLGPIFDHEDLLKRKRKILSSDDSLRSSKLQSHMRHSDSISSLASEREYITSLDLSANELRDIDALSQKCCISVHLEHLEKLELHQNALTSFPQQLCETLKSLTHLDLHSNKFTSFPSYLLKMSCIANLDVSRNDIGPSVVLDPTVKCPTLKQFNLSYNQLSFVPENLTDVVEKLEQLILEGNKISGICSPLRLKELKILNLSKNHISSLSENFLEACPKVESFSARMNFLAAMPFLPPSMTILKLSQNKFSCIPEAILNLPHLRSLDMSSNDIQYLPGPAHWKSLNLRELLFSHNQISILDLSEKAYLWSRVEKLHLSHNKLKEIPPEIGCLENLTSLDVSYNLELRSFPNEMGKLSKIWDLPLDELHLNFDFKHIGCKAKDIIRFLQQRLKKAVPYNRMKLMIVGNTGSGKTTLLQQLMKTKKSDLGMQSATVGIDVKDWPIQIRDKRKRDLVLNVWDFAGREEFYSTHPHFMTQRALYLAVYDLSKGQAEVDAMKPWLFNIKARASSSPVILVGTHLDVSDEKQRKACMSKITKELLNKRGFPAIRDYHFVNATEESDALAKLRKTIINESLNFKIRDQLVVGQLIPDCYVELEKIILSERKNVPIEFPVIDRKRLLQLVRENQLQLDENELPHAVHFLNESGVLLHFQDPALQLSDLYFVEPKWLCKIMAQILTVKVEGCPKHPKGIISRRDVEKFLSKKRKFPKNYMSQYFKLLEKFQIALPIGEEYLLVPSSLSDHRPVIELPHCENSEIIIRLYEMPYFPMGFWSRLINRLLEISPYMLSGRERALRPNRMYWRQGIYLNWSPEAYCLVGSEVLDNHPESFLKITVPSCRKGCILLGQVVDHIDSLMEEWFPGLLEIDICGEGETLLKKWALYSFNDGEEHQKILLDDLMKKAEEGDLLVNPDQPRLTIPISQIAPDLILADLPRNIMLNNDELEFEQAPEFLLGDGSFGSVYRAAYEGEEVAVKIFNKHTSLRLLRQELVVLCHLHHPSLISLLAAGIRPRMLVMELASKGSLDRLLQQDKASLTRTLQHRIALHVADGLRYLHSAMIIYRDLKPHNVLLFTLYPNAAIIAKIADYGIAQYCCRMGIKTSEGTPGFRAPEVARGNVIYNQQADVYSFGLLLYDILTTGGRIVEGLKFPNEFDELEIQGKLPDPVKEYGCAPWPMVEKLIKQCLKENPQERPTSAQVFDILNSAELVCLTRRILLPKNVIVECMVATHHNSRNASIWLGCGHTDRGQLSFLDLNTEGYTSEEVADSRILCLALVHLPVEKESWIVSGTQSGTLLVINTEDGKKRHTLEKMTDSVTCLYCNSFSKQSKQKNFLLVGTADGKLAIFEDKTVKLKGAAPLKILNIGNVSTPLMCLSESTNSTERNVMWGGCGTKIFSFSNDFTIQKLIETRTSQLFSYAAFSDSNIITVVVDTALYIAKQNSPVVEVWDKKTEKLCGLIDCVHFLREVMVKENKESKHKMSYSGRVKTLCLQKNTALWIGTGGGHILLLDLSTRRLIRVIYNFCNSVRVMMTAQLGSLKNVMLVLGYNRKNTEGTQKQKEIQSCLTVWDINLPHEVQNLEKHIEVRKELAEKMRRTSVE

[12] = biological target: Eukaryotic translation initiation factor 2-alpha kinase 1 (Homo sapiens) (UniProt Q9BQI3); assay: Selectivity interaction (ProQinase) EUB0000171b EIF2AK1
Sequence of Eukaryotic translation initiation factor 2-alpha kinase 1 (Homo sapiens) (Q9BQI3 whole entry): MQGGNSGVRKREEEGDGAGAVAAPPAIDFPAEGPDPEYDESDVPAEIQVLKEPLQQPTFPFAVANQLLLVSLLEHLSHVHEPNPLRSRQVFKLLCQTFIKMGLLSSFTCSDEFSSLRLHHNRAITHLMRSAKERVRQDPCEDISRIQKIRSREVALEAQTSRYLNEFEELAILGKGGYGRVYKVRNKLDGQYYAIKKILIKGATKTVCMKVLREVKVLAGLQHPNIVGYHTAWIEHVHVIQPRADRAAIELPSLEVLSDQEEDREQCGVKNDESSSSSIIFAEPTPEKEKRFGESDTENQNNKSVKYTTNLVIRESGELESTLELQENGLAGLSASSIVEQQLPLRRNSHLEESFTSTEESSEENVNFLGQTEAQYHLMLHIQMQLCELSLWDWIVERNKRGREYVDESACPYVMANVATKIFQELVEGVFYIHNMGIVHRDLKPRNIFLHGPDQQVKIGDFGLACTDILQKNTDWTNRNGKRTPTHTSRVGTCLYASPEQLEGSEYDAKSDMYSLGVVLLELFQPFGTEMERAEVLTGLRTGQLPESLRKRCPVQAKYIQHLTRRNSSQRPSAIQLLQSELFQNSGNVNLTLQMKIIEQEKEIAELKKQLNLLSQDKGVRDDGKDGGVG

- % of control [1]: 100%
- % of control [2]: 100%
Compound: CCN(CC)CCCCNc1ncc2cc(-c3cc(OC)cc(OC)c3)c(NC(=O)NC(C)(C)C)nc2n1

Compound: Nc1cnc(N2CCc3cc(S(=O)(=O)Nc4c(F)cc(Cl)cc4F)cc(N4CCCC4=O)c32)nc1 [TP-020n]
- % of control [3]: 100%

Compound: CNC(=O)Nc1ccc(-c2nc(N3CC4CCC(C3)O4)c3cnn(C4CCC5(CC4)OCCO5)c3n2)cc1
- % of inhibition [4]: 4%
- % of inhibition [5]: 1%
- % of inhibition [6]: 2%
- % of inhibition [7]: -1%
- % of inhibition [8]: 3%

Compound: N#Cc1cccc(-c2c[nH]c3ncnc(N4CCOCC4)c23)c1
- % of control [9]: 100%

- % of inhibition [10]: 6.43%
- % of inhibition [11]: 85.1%
Compound: CC[C@@H]1[C@H](F)C(=O)N[C@@H]1COc1nccc2cc(C(N)=O)c(OC)cc12 [ZIMLOVISERTIB]

- % of control ([12]; at 1 µM): 85%
- % of control ([12]; at 5 µM): 66%
Compound: C=CC(=O)Nc1cccc(C(=O)Nc2ccc(Nc3cc(-c4[nH]c(SC)nc4C)ccn3)cc2)c1
